These results are taken from US20210228545A1, “METHODS OF TREATING CONDITIONS RELATED TO THE S1P1 RECEPTOR” (Arena Pharmaceuticals, Inc., priority 2018, published 2021).

The conditions of data set [1]: prophylactic oral 1 mg/kg, three times a week; cited from earlier work.
For data set [2] the following is noted: murine; cited from earlier work.
The conditions of data set [3]: spared nerve injury model; cited from earlier work.
For data set [4] the following is noted: short-term high dose; cited from earlier work.
For data set [5] the following is noted: Phase II, relapsing-remitting multiple sclerosis; cited from earlier work.
For data set [6] the following is noted: in vivo; cited from earlier work.
For data set [7] the following is noted: mice; cited from earlier work.
In the next data set the target is T1, CYP2C8 (Homo sapiens, UniProt P10632).
T1 construct: human liver microsomes from a pool of 200 individuals; from tissue; host or cells: human liver microsomes, pool of 200 individuals
T1 sequence (P10632 1-490): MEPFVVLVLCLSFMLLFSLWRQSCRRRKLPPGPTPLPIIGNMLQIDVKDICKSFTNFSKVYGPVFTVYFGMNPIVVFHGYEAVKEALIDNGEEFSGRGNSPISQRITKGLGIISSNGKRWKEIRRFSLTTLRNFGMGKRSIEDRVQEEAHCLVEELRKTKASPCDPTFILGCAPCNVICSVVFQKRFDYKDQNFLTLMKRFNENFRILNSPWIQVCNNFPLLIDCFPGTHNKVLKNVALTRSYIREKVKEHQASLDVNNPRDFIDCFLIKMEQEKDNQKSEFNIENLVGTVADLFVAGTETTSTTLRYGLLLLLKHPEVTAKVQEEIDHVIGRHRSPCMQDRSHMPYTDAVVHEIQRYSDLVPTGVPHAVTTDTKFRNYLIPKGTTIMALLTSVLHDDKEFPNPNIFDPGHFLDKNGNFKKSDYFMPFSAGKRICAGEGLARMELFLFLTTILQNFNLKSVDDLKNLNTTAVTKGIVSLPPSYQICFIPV
Kind of data set: CYP reaction phenotyping in HLMs with selective chemical inhibitor. Format: in vitro ADME.

SMILES strings stand for the structures.

As for `CCCCCCCCc1ccc(CCC(N)(CO)CO)cc1` [FTY720], in data set [1], the “Development of EAMG” value was “completely prevented”. Further, the “Effect on contact hypersensitivity” value in data set [2] is “impair initiation”. Further, the “Effect on nociceptive behavior” value in data set [3] is reported as “reduce the nociceptive behavior”. The “Effect on ocular infiltrates” value in data set [4] is recorded as “rapidly reduced ocular infiltrates”. In addition, the “Effect on MRI lesions and clinical disease activity” value in data set [5] was “reduce the number of lesions detected by magnetic resonance imaging (MRI) and clinical disease activity”. Further, in data set [6], the “Adverse event in clinical trials” value was “transient asymptomatic bradycardia”. Moreover, the “Effect on ovariectomy-induced osteoporosis” value in data set [7] is on record as “relieved ovariectomy-induced osteoporosis”.
For `Cc1ccc(C)c(OCCCC(C)(C)C(=O)O)c1` [gemfibrozil], at CYP2C8, the “Inhibition of conversion of Compound 1 to first oxidative metabolite” value was determined as 85%, the “Inhibition of conversion of Compound 1 to ketone metabolite” value is on record as 60% and the “Inhibition of conversion of Compound 1 to second oxidative metabolite” value is 47%.
